pIC50: −log10 of the molar value.
Target: Coagulation factor X (Homo sapiens, UniProt P00742)
Test: Inhibition of factor Xa (unknown origin) using Bz-lle-Glu-Gly-Arg-pNA as chromogenic substrate preincubated for 30 mins followed by substrate addition by absorbance based analysis

Chain of Coagulation factor X (P00742 41-179 limits assumed): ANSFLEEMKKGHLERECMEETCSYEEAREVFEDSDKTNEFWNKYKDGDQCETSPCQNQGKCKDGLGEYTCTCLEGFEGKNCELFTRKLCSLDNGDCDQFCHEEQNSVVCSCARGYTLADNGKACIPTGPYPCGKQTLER
Chain of Coagulation factor X (P00742 235-488 limits assumed): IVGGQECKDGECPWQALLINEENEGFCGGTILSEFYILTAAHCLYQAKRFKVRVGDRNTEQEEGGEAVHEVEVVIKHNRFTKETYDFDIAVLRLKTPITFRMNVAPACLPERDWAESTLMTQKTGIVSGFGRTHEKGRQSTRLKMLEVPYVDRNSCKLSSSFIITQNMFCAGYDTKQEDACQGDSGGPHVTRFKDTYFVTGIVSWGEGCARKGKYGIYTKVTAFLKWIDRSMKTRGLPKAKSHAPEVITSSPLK

Question: How did the pIC50 turn out when `CC(=O)N[C@H]1Cc2ccc(cc2)OCC=CCNC(=O)C[C@@H](C(=O)N[C@@H](CCCNC(=N)N)C(=O)c2nc3ccccc3s2)NC(=O)[C@H](CC(C)C)NC1=O` was run?
Answer: Its pIC50 is under 4.70.

Question: `CC(=O)N[C@H]1Cc2ccc(cc2)OCC=CCNC(=O)CC[C@@H](C(=O)N[C@@H](CCCNC(=N)N)C(=O)c2nc3ccccc3s2)NC(=O)[C@H](CC(C)C)NC1=O` was tested. Which pIC50 did it give?
Answer: Its pIC50 is under 4.70.

Source: BindingDB's records for PubMed 38477709 (Washington University School of Medicine)
